Measured values taken from ChEMBL document CHEMBL5126627, “Structure-Kinetic Relationship Studies for the Development of Long Residence Time LpxC Inhibitors” (J Med Chem, 2022).
Values after ≈ are worked out from the molar mass of the structure shown. Active and inactive are the calls of the source. The calls are words filed in the database; no cut-off is given here.

Assays:
[1] = Binding affinity to Pseudomonas aeruginosa LpxC assessed as inhibition constant incubated for 18 hrs by fluorescence based assay
Pseudomonas aeruginosa [2] = experiment: Binding affinity to Pseudomonas aeruginosa LpxC assessed as binding constant (Koff) incubated for 18 hrs by fluorescence based assay
Pseudomonas aeruginosa [3] = experiment: Binding affinity to Pseudomonas aeruginosa LpxC assessed as binding constant (kon) incubated for 18 hrs by fluorescence based assay
Pseudomonas aeruginosa [4] = experiment: Antibacterial activity against Pseudomonas aeruginosa paEP assessed as inhibition of bacterial growth incubated for 24 hrs by microdilution method; type: functional
Pseudomonas aeruginosa [5] = experiment: Antibacterial activity against Pseudomonas aeruginosa PAO1 assessed as inhibition of bacterial growth incubated for 24 hrs by microdilution method; type: functional
Pseudomonas aeruginosa [6] = experiment: Antibacterial activity against Pseudomonas aeruginosa PAO1 assessed as post antibiotic effect by measuring time required for increase in 1 log10 CFU/ml of bacteria at 4X MIC incubated for 1 hr followed by compound washout; type: functional
Pseudomonas aeruginosa [7] = experiment: Binding affinity to Pseudomonas aeruginosa LpxC assessed as residence time incubated for 18 hrs by fluorescence based assay
Pseudomonas aeruginosa [8] = experiment: Antibacterial activity against Pseudomonas aeruginosa PAO1 assessed as post antibiotic effect by measuring time required for increase in 1 log10 CFU/ml of bacteria at 8X MIC incubated for 1 hr followed by compound washout; type: functional
Pseudomonas aeruginosa [9] = experiment: Binding affinity to Pseudomonas aeruginosa LpxC assessed as residence time incubated for 18 hrs by spin column assay
Pseudomonas aeruginosa [10] = experiment: Bactericidal activity against Pseudomonas aeruginosa PAO1 assessed as reduction in 3log 10 CFU/ml at 4 to 16 times MIC incubated for 16 hrs by time-kill assay; type: functional, organism-based
Pseudomonas aeruginosa [11] = experiment: Antibacterial activity against Pseudomonas aeruginosa PAO1 assessed as post antibiotic effect by measuring time required for increase in 1 log10 CFU/ml of bacteria at 16X MIC incubated for 1 hr followed by compound washout; type: functional
Escherichia coli [12] = experiment: Antibacterial activity against Escherichia coli ATCC 25922; type: functional
Pseudomonas aeruginosa [13] = experiment: Antibacterial activity against Pseudomonas aeruginosa ATCC 27853; type: functional
Escherichia coli [14] = experiment: Antibacterial activity against Escherichia coli MB2884; type: functional

Compound | Ki [1] [pM] | K (Pseudomonas aeruginosa [2]) [s⁻¹] | K (Pseudomonas aeruginosa [3]) [M⁻¹ s⁻¹] | MIC (Pseudomonas aeruginosa [4]) [µM] | MIC (Pseudomonas aeruginosa [5]) [µM] | Time (Pseudomonas aeruginosa [6]) [h] | TIME (Pseudomonas aeruginosa [7]) [h] | Time (Pseudomonas aeruginosa [8]) [h] | TIME (Pseudomonas aeruginosa [9]) [h] | Activity (Pseudomonas aeruginosa [10]) | Time (Pseudomonas aeruginosa [11]) [h] | MIC (Escherichia coli [12]) [µg/mL] | MIC (Pseudomonas aeruginosa [13]) [µg/mL] | MIC (Escherichia coli [14]) [µg/mL]
CC(CCn1ccc(-c2ccc(-c3cn(CC45CC(C4)C5)nn3)cc2)cc1=O)(C(=O)NO)S(C)(=O)=O (racemic) | 2.1 | 0.00015 | 8.52e+07 | 0.78 (≈ 0.399 µg/mL) | 12.5 (≈ 6.4 µg/mL) | 4 |  |  |  |  |  |  |  | 
CC(CCn1ccc(-c2ccc(-c3cn(Cc4ccncn4)nn3)cc2)cc1=O)(C(=O)NO)S(C)(=O)=O (racemic) | 4.2 | 0.00017 | 4.43e+07 | 3.12 (≈ 1.64 µg/mL) | 50 (≈ 26.2 µg/mL) |  | 1.71 |  |  |  |  |  |  | 
CC(CCn1ccc(-c2ccc(-c3cn(Cc4ccccn4)nn3)cc2)cc1=O)(C(=O)NO)S(C)(=O)=O (racemic) | 5.5 |  | 3.72e+07 | 0.2 (≈ 0.105 µg/mL) | 6.25 (≈ 3.27 µg/mL) |  |  |  |  |  |  |  |  | 
COc1ccc(-c2ccc(CNC3(C(=O)NO)CCS(=O)(=O)CC3)cc2F)cc1 | 14.4 | 0.00049 | 3.45e+07 | 0.1 (≈ 0.0422 µg/mL) | 0.8 (≈ 0.338 µg/mL) |  | 0.572 |  |  |  |  |  |  | 
CC(CCn1ccc(-c2ccc(NC(=O)Cc3ccccc3)cc2)cc1=O)(C(=O)NO)S(C)(=O)=O (racemic) | 95.4 | 0.0043 | 4.48e+07 | 3.12 (≈ 1.55 µg/mL) | 50 (≈ 24.9 µg/mL) |  | 0.0667 |  |  |  |  |  |  | 
CC(CCn1ccc(-c2ccc(-c3cn(Cc4ccc(F)cc4)nn3)cc2)cc1=O)(C(=O)NO)S(C)(=O)=O (racemic) | 8 | 0.00025 | 3.38e+07 | 0.05 (≈ 0.027 µg/mL) | 1.56 (≈ 0.842 µg/mL) | 1.7 | 1.14 | 2.5 | 106 | Active | 3.5 |  |  | 
CC(CCn1ccc(-c2ccc(CN3CCOCC3)cc2)cc1=O)(C(=O)NO)S(C)(=O)=O (racemic) | 96.8 | 0.0035 | 3.64e+07 |  | 50 (≈ 23.2 µg/mL) |  | 0.0783 |  |  |  |  |  |  | 
CC(CCn1ccc(-c2ccc(-c3cn(Cc4ccncc4)nn3)cc2)cc1=O)(C(=O)NO)S(C)(=O)=O (racemic) |  |  |  | 6.25 (≈ 3.27 µg/mL) | 50 (≈ 26.1 µg/mL) |  |  |  |  |  |  |  |  | 
CC(CCn1ccc(-c2ccc(-c3cn(Cc4ccccc4)nn3)cc2)cc1=O)(C(=O)NO)S(C)(=O)=O (racemic) | 10.6 | 0.00032 | 4.38e+07 | 0.78 (≈ 0.407 µg/mL) | 12.5 (≈ 6.52 µg/mL) |  | 0.955 |  |  |  |  |  |  | 
COc1ccc(-c2ccn(CCC(C)(C(=O)NO)S(C)(=O)=O)c(=O)c2)cc1 (racemic) |  |  |  | 0.8 (≈ 0.316 µg/mL) | 3.12 (≈ 1.23 µg/mL) |  |  |  |  |  |  |  |  | 
CC(CCn1ccc(-c2ccc(-c3cn(CC4CC4)nn3)cc2)cc1=O)(C(=O)NO)S(C)(=O)=O (racemic) | 10.2 | 0.00025 | 2.64e+07 | 0.4 (≈ 0.194 µg/mL) | 3.12 (≈ 1.52 µg/mL) | 1.6 | 1.11 | 2.2 | 191 | Active | 3.1 |  |  | 
CC(CCn1ccc(-c2ccc(-c3cn(CC4CCCCC4)nn3)cc2)cc1=O)(C(=O)NO)S(C)(=O)=O (racemic) | 5.5 | 0.00017 | 3.1e+07 | 3.12 (≈ 1.65 µg/mL) | 50 (≈ 26.4 µg/mL) |  | 1.67 |  |  |  |  |  |  | 
CC(CCn1ccc(-c2ccc(-c3cn(Cc4ccc([N+](=O)[O-])cc4)nn3)cc2)cc1=O)(C(=O)NO)S(C)(=O)=O (racemic) | 7 | 0.00021 | 3.07e+07 | 0.1 (≈ 0.0567 µg/mL) | 6.25 (≈ 3.54 µg/mL) |  | 1.31 |  |  |  |  |  |  | 
C[C@@H](O)[C@H](NC(=O)c1ccc(C#Cc2ccc(CN3CCOCC3)cc2)cc1)C(=O)NO |  |  |  |  |  |  |  |  |  |  |  | 0.2 (≈ 0.457 µM) |  | 
C=CCn1cc(-c2ccc(-c3ccn(CCC(C)(C(=O)NO)S(C)(=O)=O)c(=O)c3)cc2)nn1 (racemic) | 6.1 | 0.00022 | 5.2e+07 | 0.78 (≈ 0.368 µg/mL) | 12.5 (≈ 5.89 µg/mL) |  | 1.38 |  | 146 |  |  |  |  | 
CC(C)(N)[C@H](NC(=O)c1ccc(C#CC#C[C@@H]2C[C@H]2CO)cc1)C(=O)NO [ACHN-975] |  |  |  |  |  |  |  |  |  |  |  | 0.125 (≈ 0.338 µM) | 0.25 (≈ 0.677 µM) | 
CC(CCn1ccc(-c2ccc(-c3cn(CCO)nn3)cc2)cc1=O)(C(=O)NO)S(C)(=O)=O (racemic) | 3.7 | 0.00018 | 5.96e+07 | > 12.5 | > 50 |  |  |  |  |  |  |  |  | 
C[C@@H](O)C(NC(=O)c1ccc(-c2cn(Cc3ccccc3)nn2)cc1)C(=O)NO (mixture of isomers) |  |  |  | > 12.5 | > 50 |  |  |  |  |  |  |  |  | 
CC(CCn1ccc(-c2ccc(C(=O)NCc3ccccc3)cc2)cc1=O)(C(=O)NO)S(C)(=O)=O (racemic) | 274 | 0.0021 | 2.38e+07 | 3.12 (≈ 1.55 µg/mL) | 25 (≈ 12.4 µg/mL) |  | 0.133 |  |  |  |  |  |  | 
CC(CCn1ccc(-c2ccccc2)cc1=O)(C(=O)NO)S(C)(=O)=O (racemic) |  |  |  | 0.2 (≈ 0.0729 µg/mL) | 3.12 (≈ 1.14 µg/mL) | 0.7 |  | 1.1 |  | Active | 1.3 |  |  | 
CC(CCn1ccc(-c2ccc(-n3nccn3)cc2)cc1=O)(C(=O)NO)S(C)(=O)=O (racemic) |  |  |  | 0.4 (≈ 0.173 µg/mL) | 1.56 (≈ 0.673 µg/mL) | 1.4 |  | 2.2 |  | Active | 3.4 |  |  | 
COc1ccc(-c2ccn(CC[C@](C)(C(=O)NO)S(C)(=O)=O)c(=O)c2)c(F)c1 |  |  |  |  | 0.625 (≈ 0.258 µg/mL) |  |  |  |  |  |  |  |  | 
CCCc1cc(C2=N[C@@H](C(=O)NO)CO2)cc(OC)c1OC |  |  |  |  |  |  |  |  |  |  |  |  |  | 1 (≈ 3.24 µM)
CC(CCn1ccc(-c2ccc(-c3cn(Cc4cccnc4)nn3)cc2)cc1=O)(C(=O)NO)S(C)(=O)=O (racemic) | 3.2 | 0.00014 | 4.28e+07 |  |  |  | 2.02 |  |  |  |  |  |  | 
CC(CCn1ccc(-c2ccc(-c3cnnn3Cc3ccccc3)cc2)cc1=O)(C(=O)NO)S(C)(=O)=O (racemic) | 67.7 | 0.00187 | 2.78e+07 | 12.5 (≈ 6.52 µg/mL) | 50 (≈ 26.1 µg/mL) |  | 0.15 |  |  |  |  |  |  | 
O=C(NO)[C@H](Cc1ccc2ccccc2c1)NS(=O)(=O)c1ccc2ccccc2c1 |  |  |  |  |  |  |  |  |  |  |  | 1 (≈ 2.38 µM) | > 0.25 | 
COc1ccc(-c2ccc(CNC3(C(=O)NO)CCS(=O)(=O)CC3)cc2)c(F)c1 | 37.9 | 0.00053 | 1.66e+07 | 0.03 (≈ 0.0127 µg/mL) | 0.4 (≈ 0.169 µg/mL) | 1 | 0.533 | 1.3 | 79 | Active | 1.7 |  |  | 
CC1(Cn2cc(-c3ccc(-c4ccn(CCC(C)(C(=O)NO)S(C)(=O)=O)c(=O)c4)cc3)nn2)COC1 (racemic) |  |  |  | 1.56 (≈ 0.804 µg/mL) | 25 (≈ 12.9 µg/mL) |  |  |  |  |  |  |  |  | 
